In the first experiment the test system is A-375. As to the kind of experiment: Cytotoxicity against human A375 cells after 48 hrs by sulforhodamine B assay. The format is functional, cell-based. The note with it: Homo sapiens, A-375, 48 h.
On to `COc1cc(C(=O)c2c[nH]c(-c3ccc(O)cc3)n2)cc(OC)c1OC`, for which half-maximal inhibition (IC50) required 1600 nM.

As to `COc1cc(C(=O)c2c[nH]c(-c3ccc(C(F)(F)F)cc3)n2)cc(OC)c1OC`, the IC50 – broadly, the point on the concentration scale where inhibition reaches its midpoint – is 163 nM.

Compound `COc1cc(OC)cc(C(=O)c2c[nH]c(-c3ccccc3)n2)c1` displayed an IC50 of 2800 nM.

The compound `COc1cc(C(=O)c2cnc(-c3ccc(N(C)C)cc3)n2S(=O)(=O)c2ccccc2)cc(OC)c1OC` yielded an IC50 of 162 nM.

`COc1ccc(-c2ncc(C(=O)c3cc(OC)c(OC)c(OC)c3)n2S(=O)(=O)c2ccccc2)cc1OC` returned an IC50 of 192 nM.

`COc1cc(C(=O)c2c[nH]c(-c3ccc(Cl)cc3)n2)cc(OC)c1OC` displayed an IC50 of 43 nM.

The same experiment, now with this note: a-375.
In turn, `Cc1ccc(-c2nc(C(=O)c3ccc(F)cc3)c[nH]2)cc1` showed an IC50 of 108 nM.

Tested on in another experiment: not listed separately
Kind of experiment: Cytotoxicity against mouse B16-F1 cells after 48 hrs by sulforhodamine B assay. The format is functional, cell-based. Particulars: Mus musculus, B16-F1, 48 h. A general note: In SRB staining, fixed cells bind dye roughly in proportion to their protein.
Compound `COc1ccc(-c2nc(C(=O)c3ccc(F)cc3)c[nH]2)cc1OC` showed an IC50 of 4210 nM.

Consider `O=C(c1ccc(F)cc1)c1c[nH]c(-c2ccccc2)n1`, for which half-maximal inhibition (IC50) required 930 nM.

As for `COc1cc(C(=O)c2c[nH]c(-c3ccc(O)cc3)n2)cc(OC)c1OC`, the IC50 turned out to be 2400 nM.

Turning to `O=C(c1ccc(F)cc1)c1c[nH]c(-c2ccc(O)cc2)n1`, the IC50 is greater than 10000 nM.

Consider `COc1cc(C(=O)c2c[nH]c(-c3ccc(C(F)(F)F)cc3)n2)cc(OC)c1OC`, for which the IC50 was 468 nM.

For the compound `COc1cc(OC)cc(C(=O)c2c[nH]c(-c3ccccc3)n2)c1`, the IC50 was determined as 5400 nM.

Turning to `Cc1ccc(-c2ncc(C(=O)c3ccc(F)cc3)n2S(=O)(=O)c2ccccc2)cc1`, the half-maximal inhibitory concentration (IC50) was 287 nM.

`COc1cc(C(=O)c2cnc(-c3ccc(N(C)C)cc3)n2S(=O)(=O)c2ccccc2)cc(OC)c1OC` registered an IC50 of 1200 nM.

With `COc1ccc(-c2nc(C(=O)c3cc(OC)c(OC)c(OC)c3)c[nH]2)cc1`, the IC50 was determined as 108 nM.

As for `COc1ccc(-c2ncc(C(=O)c3cc(OC)c(OC)c(OC)c3)n2S(=O)(=O)c2ccccc2)cc1OC`, the IC50 was determined as 970 nM.

`COc1cc(C(=O)c2c[nH]c(-c3ccc(C)cc3)n2)cc(OC)c1OC` had an IC50 of 46 nM.

In the case of `COc1cc(C(=O)c2c[nH]c(-c3ccc(Cl)cc3)n2)cc(OC)c1OC`, the IC50 came out at 168 nM.

In the case of `COc1ccc(-c2nc(C(=O)c3cc(OC)c(OC)c(OC)c3)c[nH]2)cc1OC`, the half-inhibitory concentration (IC50) is 1400 nM.

The experiment is the same for the next values; noted with them: b16-f1.
In turn, `Cc1ccc(-c2nc(C(=O)c3ccc(F)cc3)c[nH]2)cc1` showed an IC50 of 297 nM.

Tested on in the next experiment: not listed separately
As to the kind of experiment: Cytotoxicity against human WM164 cells after 48 hrs by sulforhodamine B assay. Particulars: Homo sapiens, WM164, 48 h. Format: functional, cell-based.
With `COc1ccc(-c2nc(C(=O)c3ccc(F)cc3)c[nH]2)cc1OC`, the IC50 stood at 1400 nM.

`COc1cc(C(=O)c2c[nH]c(-c3ccc(O)cc3)n2)cc(OC)c1OC` came in with an IC50 of 1800 nM.

In the case of `O=C(c1ccc(F)cc1)c1c[nH]c(-c2ccc(O)cc2)n1`, the IC50 is greater than 10000 nM.

`Cc1ccc(-c2ncc(C(=O)c3ccc(F)cc3)n2S(=O)(=O)c2ccccc2)cc1` had an IC50 of 107 nM.

`COc1cc(C(=O)c2cnc(-c3ccc(N(C)C)cc3)n2S(=O)(=O)c2ccccc2)cc(OC)c1OC` yielded an IC50 of 308 nM.

Compound `COc1ccc(-c2ncc(C(=O)c3cc(OC)c(OC)c(OC)c3)n2S(=O)(=O)c2ccccc2)cc1OC` returned an IC50 of 139 nM.

In the case of `COc1cc(C(=O)c2c[nH]c(-c3ccc(C)cc3)n2)cc(OC)c1OC`, the half-maximal inhibitory concentration (IC50) turned out to be 8 nM.

For `CN(C)c1ccc(-c2nc(C(=O)c3ccc(F)cc3)c[nH]2)cc1`, the IC50 was 62 nM.

`COc1ccc(-c2nc(C(=O)c3cc(OC)c(OC)c(OC)c3)c[nH]2)cc1OC`: the IC50 amounted to 191 nM.

The experiment is the same for the next values; noted with them: wm164.
Compound `Cc1ccc(-c2nc(C(=O)c3ccc(F)cc3)c[nH]2)cc1` yielded an IC50 of 112 nM.

Another experiment concerns LNCaP. Kind of experiment: Cytotoxicity against human LNCAP cells after 48 hrs by sulforhodamine B assay. Format: functional, cell-based.
Details: not given
For the compound `COc1ccc(-c2nc(C(=O)c3ccc(F)cc3)c[nH]2)cc1OC`, it took 2530 nM to reach half-maximal inhibition (IC50).

`O=C(c1ccc(F)cc1)c1c[nH]c(-c2ccccc2)n1`: the IC50 stood at 610 nM.

Compound `O=C(c1ccc(F)cc1)c1c[nH]c(-c2ccc(O)cc2)n1` yielded an IC50 of 10000 nM.

The compound `COc1cc(C(=O)c2c[nH]c(-c3ccc(C(F)(F)F)cc3)n2)cc(OC)c1OC` had an IC50 of 134 nM.

Compound `COc1cc(OC)cc(C(=O)c2c[nH]c(-c3ccccc3)n2)c1` displayed an IC50 of 3600 nM.

The compound `Cc1ccc(-c2ncc(C(=O)c3ccc(F)cc3)n2S(=O)(=O)c2ccccc2)cc1` showed an IC50 of 55 nM.

`COc1cc(C(=O)c2cnc(-c3ccc(N(C)C)cc3)n2S(=O)(=O)c2ccccc2)cc(OC)c1OC` had a concentration for half-maximal inhibition (IC50) of 62 nM.

`COc1ccc(-c2nc(C(=O)c3cc(OC)c(OC)c(OC)c3)c[nH]2)cc1`: 31 nM corresponded to half-maximal inhibition (IC50).

As for `COc1ccc(-c2ncc(C(=O)c3cc(OC)c(OC)c(OC)c3)n2S(=O)(=O)c2ccccc2)cc1OC`, half-maximal inhibition (IC50) was put at 114 nM.

For the compound `COc1cc(C(=O)c2c[nH]c(-c3ccc(Cl)cc3)n2)cc(OC)c1OC`, it took 24 nM to reach half-maximal inhibition (IC50).

In turn, `CN(C)c1ccc(-c2nc(C(=O)c3ccc(F)cc3)c[nH]2)cc1` came in with an IC50 of 57 nM.

The test system of the next experiment is PPC-1. As to the kind of experiment: Cytotoxicity against human PPC1 cells after 48 hrs by sulforhodamine B assay. Format: functional, cell-based. The note with it: Homo sapiens, PPC-1, 48 h.
For the compound `COc1ccc(-c2nc(C(=O)c3ccc(F)cc3)c[nH]2)cc1OC`, the IC50 amounted to 2170 nM.

Compound `O=C(c1ccc(F)cc1)c1c[nH]c(-c2ccccc2)n1` came in with an IC50 of 570 nM.

On to `O=C(c1ccc(F)cc1)c1c[nH]c(-c2ccc(O)cc2)n1`, for which the IC50 is greater than 10000 nM.

For `COc1cc(C(=O)c2c[nH]c(-c3ccc(C(F)(F)F)cc3)n2)cc(OC)c1OC`, the 50% inhibitory concentration (IC50) came out at 110 nM.

`COc1cc(OC)cc(C(=O)c2c[nH]c(-c3ccccc3)n2)c1`: the IC50 amounted to 2100 nM.

With `Cc1ccc(-c2ncc(C(=O)c3ccc(F)cc3)n2S(=O)(=O)c2ccccc2)cc1`, the IC50 is 57 nM.

On to `COc1ccc(-c2nc(C(=O)c3cc(OC)c(OC)c(OC)c3)c[nH]2)cc1`, for which the midpoint of inhibition, the IC50, lay at 34 nM.

In turn, `COc1cc(C(=O)c2c[nH]c(-c3ccc(Cl)cc3)n2)cc(OC)c1OC` returned an IC50 of 26 nM.

In turn, `CN(C)c1ccc(-c2nc(C(=O)c3ccc(F)cc3)c[nH]2)cc1` displayed an IC50 of 45 nM.

Still in this experiment, the particulars now being: ppc-1.
For the compound `COc1cc(C(=O)c2c[nH]c(-c3ccc(C)cc3)n2)cc(OC)c1OC`, the IC50 worked out at 11 nM.

For a further experiment, the system named is PC-3. As to the kind of experiment: cells. Particulars: Homo sapiens, PC-3, 48 h.
Description: Cytotoxicity against human PC3 cells after 48 hrs by sulforhodamine B assay
In turn, `COc1ccc(-c2nc(C(=O)c3ccc(F)cc3)c[nH]2)cc1OC` displayed an IC50 of 10000 nM.

Consider `O=C(c1ccc(F)cc1)c1c[nH]c(-c2ccccc2)n1`, for which 2100 nM corresponded to half-maximal inhibition (IC50).

Compound `O=C(c1ccc(F)cc1)c1c[nH]c(-c2ccc(O)cc2)n1` gave an IC50 greater than 10000 nM.

For the compound `COc1cc(C(=O)c2c[nH]c(-c3ccc(C(F)(F)F)cc3)n2)cc(OC)c1OC`, the IC50 was 127 nM.

For the compound `COc1cc(OC)cc(C(=O)c2c[nH]c(-c3ccccc3)n2)c1`, 3200 nM corresponded to half-maximal inhibition (IC50).

Compound `Cc1ccc(-c2ncc(C(=O)c3ccc(F)cc3)n2S(=O)(=O)c2ccccc2)cc1` registered an IC50 of 80 nM.

In turn, `COc1cc(C(=O)c2cnc(-c3ccc(N(C)C)cc3)n2S(=O)(=O)c2ccccc2)cc(OC)c1OC` gave a half-inhibitory concentration (IC50) of 93 nM.

The compound `COc1ccc(-c2nc(C(=O)c3cc(OC)c(OC)c(OC)c3)c[nH]2)cc1` had an IC50 of 45 nM.

Take `COc1ccc(-c2ncc(C(=O)c3cc(OC)c(OC)c(OC)c3)n2S(=O)(=O)c2ccccc2)cc1OC`: the IC50 stood at 197 nM.

On to `COc1cc(C(=O)c2c[nH]c(-c3ccc(Cl)cc3)n2)cc(OC)c1OC`, for which half-maximal inhibition (IC50) required 35 nM.

As for `CN(C)c1ccc(-c2nc(C(=O)c3ccc(F)cc3)c[nH]2)cc1`, it took 81 nM to reach half-maximal inhibition (IC50).

Another experiment relates to DU-145. As to the kind of experiment: cells. Particulars: Homo sapiens, DU-145, 48 h.
Description: Cytotoxicity against human DU145 cells after 48 hrs by sulforhodamine B assay
`COc1ccc(-c2nc(C(=O)c3ccc(F)cc3)c[nH]2)cc1OC` came in with a half-maximal inhibitory concentration (IC50) of 10000 nM.

Regarding `O=C(c1ccc(F)cc1)c1c[nH]c(-c2ccccc2)n1`, it took 850 nM to reach half-maximal inhibition (IC50).

For `O=C(c1ccc(F)cc1)c1c[nH]c(-c2ccc(O)cc2)n1`, the IC50 is greater than 10000 nM.

Consider `COc1cc(C(=O)c2c[nH]c(-c3ccc(C(F)(F)F)cc3)n2)cc(OC)c1OC`, for which the midpoint of inhibition, the IC50, lay at 174 nM.

`COc1cc(OC)cc(C(=O)c2c[nH]c(-c3ccccc3)n2)c1`: the concentration for half-maximal inhibition (IC50) was 2600 nM.

Compound `Cc1ccc(-c2ncc(C(=O)c3ccc(F)cc3)n2S(=O)(=O)c2ccccc2)cc1` yielded an IC50 of 80 nM.

In turn, `COc1cc(C(=O)c2cnc(-c3ccc(N(C)C)cc3)n2S(=O)(=O)c2ccccc2)cc(OC)c1OC` gave an IC50 of 99 nM.

The compound `COc1ccc(-c2nc(C(=O)c3cc(OC)c(OC)c(OC)c3)c[nH]2)cc1` displayed an IC50 of 48 nM.

Compound `COc1ccc(-c2ncc(C(=O)c3cc(OC)c(OC)c(OC)c3)n2S(=O)(=O)c2ccccc2)cc1OC` returned a 50% inhibitory concentration (IC50) of 144 nM.

For the compound `COc1cc(C(=O)c2c[nH]c(-c3ccc(Cl)cc3)n2)cc(OC)c1OC`, inhibition was half-maximal at 36 nM (IC50).

Source of the values: ChEMBL document CHEMBL1268953, “Discovery of novel 2-aryl-4-benzoyl-imidazoles targeting the colchicines binding site in tubulin as potential anticancer agents” (J Med Chem, 2010).
